The record followed here is PMC10178848, “Modulating fast skeletal muscle contraction protects skeletal muscle in animal models of Duchenne muscular dystrophy” (The Journal of Clinical Investigation, 2023).

The target in this test is T1, porcine ventricular cardiac S1 (Sus scrofa, UniProt P79293).
T1 construct: tissue Pel-freez; host or cells: frozen porcine ventricular muscle; myosin extracted and digested with alpha-chymotrypsin
Briefly: Actin-activated myosin S1 ATPase, cardiac. The class given is biochemical. The method, then:
Smooth muscle chicken gizzard S1 was purchased from Cytoskeleton Inc. Other myosin S1 was prepared via published protocols ([21]). Briefly, fresh rabbit psoas and frozen porcine ventricular muscle (Pel-freez) were extracted in 0.3 M KCl, 0.15 M KH2PO4, 1 mM EGTA, 1 mM ATP, 1 mM DTT, pH 6.5, at 4°C. Full-length myosin was purified from each extract via low-ionic precipitations with final precipitation into PM12 buffer (12 mM PIPES, pH 7.0, 2 mM MgCl2). Purified myosin was resuspended in PIPES/EDTA buffer (20 mM PIPES, pH 6.8, 10 mM EDTA, 1 mM DTT) and reacted with 0.2 mg/mL α-chymotrypsin for 30 minutes at room temperature. Proteolysis was quenched with PMSF (final concentration 100 μM), and the reaction was centrifuged for 45 minutes at 230,000g. S1 fragment in the supernatant was dialyzed into PM12 with 0.02% sodium azide and clarified by centrifugation. Sucrose was added to 10% w/v and flash-frozen in liquid N2 and stored at –80°C. […]
A lactate dehydrogenase/pyruvate kinase enzyme-coupled system ([62]) was used to monitor ATP hydrolysis rates in various muscle preparations. […] A multidrop cassette (Thermo Fisher Scientific) dispensed 10 μL of the coupled enzyme system, calcium, and myofibrils to 10 μL ATP, NADH and PEP to initiate the reaction prior to reading on a plate reader (Envision, Perkin Elmer) for 10 minutes per plate at room temperature. […]

T1 sequence (P79293 1-808 limits assumed): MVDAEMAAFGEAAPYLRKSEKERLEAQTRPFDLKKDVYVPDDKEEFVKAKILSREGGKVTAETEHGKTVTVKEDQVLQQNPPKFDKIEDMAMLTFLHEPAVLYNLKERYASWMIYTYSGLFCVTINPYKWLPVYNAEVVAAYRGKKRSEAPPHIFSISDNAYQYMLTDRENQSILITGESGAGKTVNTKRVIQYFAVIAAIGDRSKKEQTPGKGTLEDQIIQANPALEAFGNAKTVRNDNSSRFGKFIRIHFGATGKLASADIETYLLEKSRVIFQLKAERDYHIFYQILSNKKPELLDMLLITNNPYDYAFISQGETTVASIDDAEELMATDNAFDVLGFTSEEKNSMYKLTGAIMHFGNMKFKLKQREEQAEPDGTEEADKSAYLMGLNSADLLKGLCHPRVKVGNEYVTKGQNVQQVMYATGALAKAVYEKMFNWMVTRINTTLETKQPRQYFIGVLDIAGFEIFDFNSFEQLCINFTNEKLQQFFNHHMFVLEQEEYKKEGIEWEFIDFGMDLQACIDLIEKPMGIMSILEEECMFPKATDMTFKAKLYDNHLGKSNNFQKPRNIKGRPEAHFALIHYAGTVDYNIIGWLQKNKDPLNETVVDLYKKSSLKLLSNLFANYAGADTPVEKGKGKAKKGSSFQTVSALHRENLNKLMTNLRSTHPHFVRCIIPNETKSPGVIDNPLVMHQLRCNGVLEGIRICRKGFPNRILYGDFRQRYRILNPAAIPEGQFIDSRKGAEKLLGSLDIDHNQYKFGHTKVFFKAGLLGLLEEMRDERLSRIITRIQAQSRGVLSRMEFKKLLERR

With `O=c1ccc(-c2cnc(OCC(F)(F)F)nc2)nn1Cc1cncc(F)c1` [EDG-5506], the IC50 was > 100 µM.
